{"source": "patent US20250195463A1", "about": "“ORGANOMETALLIC COMPLEX, CONTROLLED-RELEASE MULTI-FUNCTIONAL DRUG, PHARMACEUTICAL COMPOSITION, PROCESSES FOR THE PREPARATION THEREOF AND THEIR USE” (FACULDADE DE CIÊNCIAS DA UNIVERSIDADE DE LISBOA, priority 2022, published 2025)", "key": {"[1]": {"assay": "Stability in organic medium (dimethyl sulfoxide) by UV-Vis spectroscopy", "type": "physicochemical", "conditions": "for Relative variation of the maximum absorbance of the π→π* transitions: band 289-300 nm (λmax in column head); for Relative variation of the maximum absorbance of the charge transfer bands: band 357-425 nm (λmax in column head)", "experimental": "(§1) The stability of the complexes 4-11 in organic and aqueous media was evaluated over 24 h by UV-Vis spectroscopy at room temperature, in dark, on a Jasco V-660 spectrometer using quartz cuvettes (1 cm optical path length). The electronic spectra (270-900 nm) were acquired at regular periods of time (0 h, 0.25 h, 0.5 h, 0.75 h, 1 h, 2 h, 3 h, 4 h, 5 h, 6 h, 24 h) for solutions of 100% dimethyl sulfoxide (complexes 4-11) and 5% dimethyl sulfoxide/95% Dulbecco's Modified Eagle Medium (complexes 4, 5 and 8-11) or 10% dimethyl sulfoxide/90% Dulbecco's Modified Eagle Medium (complexes 6 and 7) at concentrations ranging from 7.0×10^-5 M to 3.0×10^-4 M."}, "[2]": {"assay": "Stability in aqueous medium (dimethyl sulfoxide/Dulbecco's Modified Eagle Medium) by UV-Vis spectroscopy", "type": "physicochemical", "conditions": "5% dimethyl sulfoxide/95% Dulbecco's Modified Eagle Medium; for Relative variation of the maximum absorbance of the π→π* transitions: band 292-296 nm (λmax in column head); for Relative variation of the maximum absorbance of the charge transfer bands: band 358-400 nm (λmax in column head)", "experimental": "as §1"}, "[3]": {"tested_on": "MDA-MB-231 (FGFR−)", "assay": "MTT cytotoxicity assay", "conditions": "MDA-MB-231", "experimental": "By way of example, the in vitro cytotoxicity of the conjugate RuPC1, complex 4 and peptide P2 was determined in four human breast cancer cell lines with different levels of expression of the receptor FGFR, namely MDA-MB-231 (FGFR−), MCF-7 (FGFR−), SK-BR-3 (FGFR+), and MDA-MB-134-VI (FGFR+). The cytotoxicity of RuPC1 was also determined in the stated cell lines at controlled pH 6.8 and 7.4. The cytotoxicity of the complexes 5, 8, 9, and the reference complex (2,2′-bipyridyl)(triphenylphosphane)(f-cyclopentadienyl)ruthenium(II) trifluoromethanesulfonate, [RuCp(PPh3)(bipy)][CF3SO3] (TM34) was only determined in the cell line MDA-MB-231. All the cell lines were from the American Type Culture Collection (ATCC) and were cultured in Dulbecco's Modified Eagle Medium+Glutamax-I (Gibco) supplemented with 10% fetal bovine serum (FBS) and 1% antibiotics, excepting the MDA-MB-134-VI for which it was used the double amount of FBS. The cell cultures were kept in an incubator Heraeus at 37° C. under humidified atmosphere at 5% CO2. The cell viability was evaluated resorting to the MTT ([3-(4,5-dimethylthiazol-2-yl)-2,5-diphenyltetrazolium bromide]) colorimetric assay, which is based on the reduction of the tetrazolium salt to purple formazan by mitochondrial dehydrogenases in metabolically active cells. For the assays, the cells were seeded in 96-well plates (2×10^4 to 3×10^4 cells/200 μL) and allowed to adhere overnight. The compounds were first dissolved in dimethyl sulfoxide to obtain 10 mM stock solutions, further used to prepare the working solutions, at 0.1 to 100 μM, by dilution in the cell culture medium. Alternatively, for the assays at controlled pH 6.8 and 7.4, RuPC1 was first dissolved in a solution of 15% dimethyl sulfoxide/85% phosphate buffer (10 mM in water) to obtain 1.5 mM stock solutions further incubated for 48 hours at both pH values prior to be used to prepare the working solutions, at 0.1 to 50 μM, by dilution in the cell culture medium. In both cases, after continuous exposure of the cells to the compounds for 48 h at 37° C., the medium was removed and the cells were incubated with 200 μL of MTT solution (0.5 mg/mL) for 3 h. Then, the solution was discarded and the purple formazan formed by the viable cells was dissolved in 200 μL of dimethyl sulfoxide. The cell viability (%) was determined relative to the control (cells incubated without compounds) by measuring the absorbance at 570 nm on a PowerWave Xs Bio-Tek Instruments plate spectrophotometer. The respective values of the half maximal inhibitory concentration (IC50) were calculated with the software GraphPad Prism. All the compounds were tested in at least two independent experiments, each comprising six replicates per concentration."}}, "data": [{"compound": "CC(=O)C1=C[CH]([Ru-]2([PH](c3ccccc3)(c3ccccc3)c3ccccc3)[n+]3ccccc3-c3cccc[n+]32)C=C1.O=S(=O)([O-])C(F)(F)F", "note": "(stereo not shown) [compound 5]", "values": [{"measurement": "Relative variation of the maximum absorbance of the π→π* transitions", "setting": "[1]; time 0 h", "value": 0.0, "unit": "%"}, {"measurement": "Relative variation of the maximum absorbance of the charge transfer bands", "setting": "[1]; time 0 h", "value": 0.0, "unit": "%"}, {"measurement": "Relative variation of the maximum absorbance of the π→π* transitions", "setting": "[1]; time 0.25 h", "value": 0.3, "unit": "%"}, {"measurement": "Relative variation of the maximum absorbance of the charge transfer bands", "setting": "[1]; time 0.25 h", "value": 0.1, "unit": "%"}, {"measurement": "Relative variation of the maximum absorbance of the π→π* transitions", "setting": "[1]; time 0.5 h", "value": "−0.5", "unit": "%"}, {"measurement": "Relative variation of the maximum absorbance of the charge transfer bands", "setting": "[1]; time 0.5 h", "value": 0.0, "unit": "%"}, {"measurement": "Relative variation of the maximum absorbance of the π→π* transitions", "setting": "[1]; time 0.75 h", "value": "−0.4", "unit": "%"}, {"measurement": "Relative variation of the maximum absorbance of the charge transfer bands", "setting": "[1]; time 0.75 h", "value": 0.2, "unit": "%"}, {"measurement": "Relative variation of the maximum absorbance of the π→π* transitions", "setting": "[1]; time 1 h", "value": "−0.3", "unit": "%"}, {"measurement": "Relative variation of the maximum absorbance of the charge transfer bands", "setting": "[1]; time 1 h", "value": 0.1, "unit": "%"}, {"measurement": "Relative variation of the maximum absorbance of the π→π* transitions", "setting": "[1]; time 2 h", "value": "−0.9", "unit": "%"}, {"measurement": "Relative variation of the maximum absorbance of the charge transfer bands", "setting": "[1]; time 2 h", "value": 0.3, "unit": "%"}, {"measurement": "Relative variation of the maximum absorbance of the π→π* transitions", "setting": "[1]; time 3 h", "value": "−1.2", "unit": "%"}, {"measurement": "Relative variation of the maximum absorbance of the charge transfer bands", "setting": "[1]; time 3 h", "value": 0.3, "unit": "%"}, {"measurement": "Relative variation of the maximum absorbance of the π→π* transitions", "setting": "[1]; time 4 h", "value": "−1.2", "unit": "%"}, {"measurement": "Relative variation of the maximum absorbance of the charge transfer bands", "setting": "[1]; time 4 h", "value": 0.3, "unit": "%"}, {"measurement": "Relative variation of the maximum absorbance of the π→π* transitions", "setting": "[1]; time 5 h", "value": "−1.5", "unit": "%"}, {"measurement": "Relative variation of the maximum absorbance of the charge transfer bands", "setting": "[1]; time 5 h", "value": 0.5, "unit": "%"}, {"measurement": "Relative variation of the maximum absorbance of the π→π* transitions", "setting": "[1]; time 6 h", "value": "−1.5", "unit": "%"}, {"measurement": "Relative variation of the maximum absorbance of the charge transfer bands", "setting": "[1]; time 6 h", "value": 0.2, "unit": "%"}, {"measurement": "Relative variation of the maximum absorbance of the π→π* transitions", "setting": "[1]; time 24 h", "value": "−1.9", "unit": "%"}, {"measurement": "Relative variation of the maximum absorbance of the charge transfer bands", "setting": "[1]; time 24 h", "value": 0.3, "unit": "%"}, {"measurement": "Relative variation of the maximum absorbance of the π→π* transitions", "setting": "[2]; time 0 h", "value": 0.0, "unit": "%"}, {"measurement": "Relative variation of the maximum absorbance of the charge transfer bands", "setting": "[2]; time 0 h", "value": 0.0, "unit": "%"}, {"measurement": "Relative variation of the maximum absorbance of the π→π* transitions", "setting": "[2]; time 0.25 h", "value": 0.6, "unit": "%"}, {"measurement": "Relative variation of the maximum absorbance of the charge transfer bands", "setting": "[2]; time 0.25 h", "value": "−1.0", "unit": "%"}, {"measurement": "Relative variation of the maximum absorbance of the π→π* transitions", "setting": "[2]; time 0.5 h", "value": "−0.1", "unit": "%"}, {"measurement": "Relative variation of the maximum absorbance of the charge transfer bands", "setting": "[2]; time 0.5 h", "value": "−2.1", "unit": "%"}, {"measurement": "Relative variation of the maximum absorbance of the π→π* transitions", "setting": "[2]; time 0.75 h", "value": 0.3, "unit": "%"}, {"measurement": "Relative variation of the maximum absorbance of the charge transfer bands", "setting": "[2]; time 0.75 h", "value": "−2.7", "unit": "%"}, {"measurement": "Relative variation of the maximum absorbance of the π→π* transitions", "setting": "[2]; time 1 h", "value": 0.0, "unit": "%"}, {"measurement": "Relative variation of the maximum absorbance of the charge transfer bands", "setting": "[2]; time 1 h", "value": "−3.4", "unit": "%"}, {"measurement": "Relative variation of the maximum absorbance of the π→π* transitions", "setting": "[2]; time 2 h", "value": 1.0, "unit": "%"}, {"measurement": "Relative variation of the maximum absorbance of the charge transfer bands", "setting": "[2]; time 2 h", "value": "−1.2", "unit": "%"}, {"measurement": "Relative variation of the maximum absorbance of the π→π* transitions", "setting": "[2]; time 3 h", "value": 0.7, "unit": "%"}, {"measurement": "Relative variation of the maximum absorbance of the charge transfer bands", "setting": "[2]; time 3 h", "value": "−3.4", "unit": "%"}, {"measurement": "Relative variation of the maximum absorbance of the π→π* transitions", "setting": "[2]; time 4 h", "value": 0.7, "unit": "%"}, {"measurement": "Relative variation of the maximum absorbance of the charge transfer bands", "setting": "[2]; time 4 h", "value": "−4.1", "unit": "%"}, {"measurement": "Relative variation of the maximum absorbance of the π→π* transitions", "setting": "[2]; time 5 h", "value": 0.7, "unit": "%"}, {"measurement": "Relative variation of the maximum absorbance of the charge transfer bands", "setting": "[2]; time 5 h", "value": "−5.1", "unit": "%"}, {"measurement": "Relative variation of the maximum absorbance of the π→π* transitions", "setting": "[2]; time 6 h", "value": 2.1, "unit": "%"}, {"measurement": "Relative variation of the maximum absorbance of the charge transfer bands", "setting": "[2]; time 6 h", "value": 0.3, "unit": "%"}, {"measurement": "Relative variation of the maximum absorbance of the π→π* transitions", "setting": "[2]; time 24 h", "value": "−1.8", "unit": "%"}, {"measurement": "Relative variation of the maximum absorbance of the charge transfer bands", "setting": "[2]; time 24 h", "value": "−3.0", "unit": "%"}, {"measurement": "IC50 range in words", "setting": "[3]; Example 24", "value": "sub-micromolar range"}, {"measurement": "IC50", "setting": "[3]; read-out: Cytotoxic activity expressed as IC50, Table 5, 48 h, 37° C.", "value": 360, "unit": "nM"}]}]}
